{"source": "patent US10350302B2", "about": "“Thymidine kinase diagnostic assay for gene therapy applications” (GenVivo, Inc., priority 2013, dated 2019)", "molecules": {"B1": {"name": "HSV-TK gene A168H and mutated at amino acids 159-161 from LIF to IFL: HSV-TK gene A168H also mutated at amino acids 159-161 from LIF to IFL (nucleic acid)", "DNA": "GTCAGCGGCCGCACCGGTACGCGTCCACCATGGCCAGCTACCCCGGCCACCAGCACGCCAGCGCCTTCGACCAGGCCGCCCGCAGCCGCGGCCACAGCAACGGCAGCACCGCACTGCGGCCACGGCGCCAGCAGGAGGCCACCGAGGTGCGCCCCGAGCAGAAGATGCCCACCCTGCTGCGCGTGTACATCGACGGACCACACGGCATGGGCAAGACCACCACCACCCAGCTGCTGGTGGCCCTGGGCAGCCGCGACGACATCGTGTACGTGCCCGAGCCCATGACCTACTGGCGCGTGCTGGGCGCCAGCGAGACCATCGCCAACATCTACACCACCCAGCACCGCCTGGACCAAGGCGAGATCAGCGCCGGCGACGCCGCCGTGGTGATGACCAGCGCCCAGATTACAATGGGCATGCCCTACGCCGTGACCGACGCCGTGCTGGCACCACACATCGGCGGCGAGGCCGGCAGCAGCCACGCACCACCACCAGCACTGACCATCTTCCTGGACCGGCACCCAATCGCACACCTGCTGTGCTACCCGGCAGCACGCTACCTGATGGGCTCCATGACACCACAAGCCGTGCTGGCCTTCGTGGCCCTGATCCCACCAACACTGCCCGGCACCAACATCGTGCTGGGCGCCCTGCCCGAGGACCGCCACATCGACCGCCTGGCCAAGCGCCAGCGCCCCGGCGAGCGCCTGGACCTGGCCATGCTGGCCGCCATCCGCCGCGTGTACGGCCTGCTGGCCAACACCGTGCGCTACCTGCAGTGCGGCGGCAGCTGGCGCGAGGACTGGGGCCAGCTGAGCGGCACCGCCGTGCCACCACAGGGCGCCGAGCCACAGAGCAACGCCGGACCACGACCACACATCGGCGACACCCTGTTCACCCTGTTCCGGGCACCAGAGCTGCTGGCACCAAACGGCGACCTGTACAACGTGTTCGCCTGGGCCCTGGACGTGCTGGCCAAGCGCCTGCGCTCCATGCACGTGTTCATCCTGGACTACGACCAGTCACCGGCCGGCTGCCGCGACGCCCTGCTGCAGCTGACCAGCGGCATGGTGCAGACCCACGTGACAACACCCGGCAGCATCCCAACAATCTGCGACCTGGCCCGCACCTTCGCCCGCGAGATGGGCGAGGCCAACTAATAGGGATCCCTCGAGAAGCTTGTCA"}, "B2": {"name": "SEQ ID NO: 18: optimized HSV-TK polynucleotide: A168H, nuclear export sequence, double mutated NLS, codon optimized, splice corrected (nucleic acid)", "DNA": "GTCAGCGGCCGCACCGGTACGCGTCCACCATGGCCCTGCAGAAAAAGCTGGAAGAGCTGGAACTGGATGGCAGCTACCCCGGCCACCAGCACGCCAGCGCCTTCGACCAGGCCGCCCGCAGCCGCGGCCACAGCAACGGCAGCACCGCACTGCGGCCAGGATCTCAGCAGGAGGCCACCGAGGTGCGCCCCGAGCAGAAGATGCCCACCCTGCTGCGCGTGTACATCGACGGACCACACGGCATGGGCAAGACCACCACCACCCAGCTGCTGGTGGCCCTGGGCAGCCGCGACGACATCGTGTACGTGCCCGAGCCCATGACCTACTGGCGCGTGCTGGGCGCCAGCGAGACCATCGCCAACATCTACACCACCCAGCACCGCCTGGACCAAGGCGAGATCAGCGCCGGCGACGCCGCCGTGGTGATGACCAGCGCCCAGATTACAATGGGCATGCCCTACGCCGTGACCGACGCCGTGCTGGCACCACACATCGGCGGCGAGGCCGGCAGCAGCCACGCACCACCACCAGCACTGACCCTGATCTTCGACCGGCACCCAATCGCACACCTGCTGTGCTACCCGGCAGCACGCTACCTGATGGGCTCCATGACACCACAAGCCGTGCTGGCCTTCGTGGCCCTGATCCCACCAACACTGCCCGGCACCAACATCGTGCTGGGCGCCCTGCCCGAGGACCGCCACATCGACCGCCTGGCCAAGCGCCAGCGCCCCGGCGAGCGCCTGGACCTGGCCATGCTGGCCGCCATCCGCCGCGTGTACGGCCTGCTGGCCAACACCGTGCGCTACCTGCAGTGCGGCGGCAGCTGGCGCGAGGACTGGGGCCAGCTGAGCGGCACCGCCGTGCCACCACAGGGCGCCGAGCCACAGAGCAACGCCGGACCACGACCACACATCGGCGACACCCTGTTCACCCTGTTCCGGGCACCAGAGCTGCTGGCACCAAACGGCGACCTGTACAACGTGTTCGCCTGGGCCCTGGACGTGCTGGCCAAGCGCCTGCGCTCCATGCACGTGTTCATCCTGGACTACGACCAGTCACCGGCCGGCTGCCGCGACGCCCTGCTGCAGCTGACCAGCGGCATGGTGCAGACCCACGTGACAACACCCGGCAGCATCCCAACAATCTGCGACCTGGCCCGCACCTTCGCCCGCGAGATGGGCGAGGCCAACTAATAGGGATCCCTCGAGAAGCTTGTCA"}}, "key": {"HSV-TK enzyme": {"test_system": "HSV-TK enzyme", "conditions": "cited from earlier work"}, "[1]": {"test": "[18F]FHBG whole body biodistribution by PET (FIG. 2)", "type": "in vivo, human", "description": "FIG. 2 is whole body coronal images of [^18F]FHBG biodistribution in a healthy human subject at four distinct time periods after 4.53 mCi i.v. injection of the [^18F]FHBG.\nIn some embodiments, the clearance pattern in a subject determines the length of time delay for measuring background and determining, for example, [^18F]FHBG imaging activity. […] Accordingly, depending upon the organ and subject individual, some time may be required for background levels to decrease in order to measure HSV-TK gene expression. […] In these organ systems, a sufficient threshold for gene therapy suitability may be, for example, at least above 1.0 SUV, at least above 1.5 SUV, at least above 2.0 SUV, at least above 2.5 SUV, at least above 3.0 SUV, at least above 3.5 SUV or at least above 4.0 SUV.\nIn contrast, some delay may be needed in order to image signals above background levels in, for example, the liver and kidneys. See Yaghoubi et al. Nat. Protocols at vol. 1, p. 3073. Because of the background signals in these organ systems, a sufficient threshold for determination of suitability for gene therapy treatment may be, for example, at least 10% above background, at least 15% above background, at least 20% above background, at least 25% above background, at least 30% above background, at least 35% above background, at least 40% above background, at least 45% above background, at least 50% above background, at least 55% above background, at least 60% above background, at least 65% above background, at least 70% above background, at least 75% above background, at least 80% above background, at least 85% above background, at least 90% above background, at least 95% above background or at least 100% or more above background when measured after a predetermined amount of time. […] Accordingly, [^18F]FHBG signal measurements in the liver should not be taken until after [^18F]FHBG signal levels have decreased to background, approximately 1 to 1½ hours, depending upon clearance rate in each individual subject."}, "mammalian TK enzymes": {"test_system": "mammalian TK enzymes", "conditions": "cited from earlier work"}, "[2]": {"test_system": "cells containing HSV-TK-m2", "conditions": "published observations; cited from earlier work"}, "cancer cells": {"test_system": "cancer cells", "test": "GCV mediated cancer cell kill assay after retroviral transduction", "type": "cell-based", "conditions": "following retroviral transduction delivery", "description": "[…]"}, "[3]": {"conditions": "healthy human subject, 45.3 minutes to 80.3 minutes"}, "[4]": {"conditions": "healthy human subject, 83.3 minutes to 155.6 minutes"}}, "data": [{"molecule": "Nc1nc2c(ncn2CCC(CO)C[18F])c(=O)[nH]1", "note": "(stereo not drawn) [[^18F]FHBG, 9-[4-[^18F]Fluoro-3-(hydroxymethyl)butyl]guanine]", "values": [{"measurement": "affinity as substrate for HSV-TK enzyme", "setting": "HSV-TK enzyme", "value": "high affinity substrate"}, {"measurement": "background [18F]FHBG signal in the heart and lungs", "setting": "[1]; healthy human subject, 4.53 mCi i.v., after administration", "value": "virtually no background"}, {"measurement": "[18F]FHBG levels in the liver, kidneys and bladder", "setting": "[1]; healthy human subject, 4.53 mCi i.v., between 7.6 and 42.6 minutes after administration", "value": "high"}, {"measurement": "[18F]FHBG levels in the liver and kidneys", "setting": "[1]; [3]", "value": "decreased significantly"}, {"measurement": "[18F]FHBG signal in the bladder", "setting": "[1]; [3]", "value": "persistent high signal"}, {"measurement": "[18F]FHBG levels in the liver and kidneys", "setting": "[1]; [4]", "value": "decreased even further"}, {"measurement": "[18F]FHBG signal in the bladder", "setting": "[1]; [4]", "value": "maintenance of high signal levels"}, {"measurement": "[18F]FHBG background in most tissues outside the lower abdomen", "setting": "[1]; humans", "value": "rapidly decreases"}, {"measurement": "affinity for mammalian TK enzymes", "setting": "mammalian TK enzymes", "value": "relative low affinity"}]}, {"molecule": "Nc1nc(O)c2ncn(COC(CO)CO)c2n1", "note": "[ganciclovir]", "values": [{"measurement": "duration of ganciclovir sufficient to kill the majority of cells containing HSV-TK-m2", "setting": "[2]", "value": 5, "unit": "days"}]}, {"molecule": "B1", "values": [{"measurement": "GCV mediated cancer kill activity", "setting": "cancer cells; ganciclovir (GCV) pro-drug", "value": "exhibited GCV mediated cancer cell kill activity"}]}, {"molecule": "B2", "values": [{"measurement": "pro-drug GCV enzyme activity and selectivity for ability to kill cancer cells", "setting": "cancer cells", "value": "exhibited pro-drug GCV enzyme activity and selectivity"}]}]}
